Source: PubChem BioAssay (NCI)
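Exposure lasted 48 hours, with cells grown in 96-well plates and compounds tested at five concentrations. GI50 is the concentration that inhibits growth by half. Definition used: TGI = concentration required for complete inhibition of growth.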

Assays:
Test in all cases: DTP human tumour cell line panel, 48 h
[1] = test system: HCT-116 colon
[2] = test system: RXF 393 renal
[3] = test system: ACHN renal
[4] = test system: UACC-257 melanoma
[5] = test system: A549 NSCLC
[6] = test system: EKVX NSCLC
[7] = test system: IGROV1 ovarian
[8] = test system: MALME-3M melanoma
[9] = test system: SK-MEL-2 melanoma
[10] = test system: HL-60(TB) leukemia

Row | SMILES | TGI [1] | TGI [2] | TGI [3] | TGI [4] | TGI [5] | TGI [6] | TGI [7] | TGI [8] | TGI [9] | TGI [10] | GI50 [2] | GI50 [4] | GI50 [5] | GI50 [10] | GI50 [7] | GI50 [8] | GI50 [9]
1 | COc1cc(C(=O)C2C(=O)c3ccccc3C2C2(O)c3ccccc3CC2C(O)c2cc(OC)c(OC)c(OC)c2)cc(OC)c1OC (stereo not given) | > 100 µM | > 100 µM | > 100 µM | > 100 µM | > 100 µM | > 100 µM | > 100 µM | > 100 µM | > 100 µM |  |  |  |  |  |  |  | 
2 | COc1c2c(cc3c1OCO3)C13C=CC(OC)CC1N(CC3)C2 (stereo not given) | > 100 µM | > 100 µM | > 100 µM | > 100 µM | > 100 µM | > 100 µM | > 100 µM | > 100 µM | > 100 µM | > 100 µM |  |  |  |  |  |  | 
3 | CCCC(N)C(=O)c1ccccc1 (stereo not given) | > 100 µM | > 100 µM | > 100 µM | > 100 µM | > 100 µM | > 100 µM | > 100 µM | > 100 µM | > 100 µM | > 100 µM |  |  |  |  |  |  | 
4 | O=C(Nc1ccc(Sc2ccc(N=Nc3c(O)c(S(=O)(=O)O)cc4cc(S(=O)(=O)O)ccc34)cc2)cc1)c1ccc(N=Nc2c(O)ccc3c(S(=O)(=O)O)cc(S(=O)(=O)O)cc23)cc1 | > 100 µM | > 100 µM | > 100 µM | > 100 µM | > 100 µM | > 100 µM | > 100 µM | 72 µM | > 100 µM | 33.5 µM |  |  |  |  |  |  | 
5 | O=c1c2ccccc2nc2n1C(c1ccc([N+](=O)[O-])cc1)C2(c1ccccc1)c1ccccc1 (stereo not given) | > 100 µM | > 100 µM | > 100 µM | > 100 µM | > 100 µM | > 100 µM | > 100 µM | > 100 µM | > 100 µM | > 100 µM |  |  |  |  |  |  | 
6 | CCC(=O)NC(Nc1cccc(F)c1)(C(F)(F)F)C(F)(F)F | > 100 µM | > 100 µM | > 100 µM | > 100 µM | > 100 µM | > 100 µM | > 100 µM |  | > 100 µM | > 100 µM |  |  |  |  |  |  | 
7 | CC(=O)O[C@H]1C=CC(=O)C(C)CC1C (stereo not given in full) | > 100 µM | > 100 µM | > 100 µM | > 100 µM | > 100 µM | > 100 µM | > 100 µM | > 100 µM | > 100 µM | > 100 µM |  |  |  |  |  |  | 
8 | Cc1cc(C)c2c(c1)C1=NCCN1C2(O)c1ccc(Cl)cc1 (stereo not given) | 26 µM | 27.6 µM | 29.6 µM | 31.9 µM | 35.5 µM | 33.3 µM | 27.4 µM |  | 34.7 µM | 49.4 µM |  |  |  |  |  |  | 
9 | CC(=O)C=NCC(=O)O | > 100 µM | > 100 µM | > 100 µM | > 100 µM | > 100 µM | > 100 µM | > 100 µM | > 100 µM | > 100 µM | > 100 µM |  |  |  |  |  |  | 
10 | O=C(O)C1CCC(=O)N1S(=O)(=O)c1ccccc1 (stereo not given) | > 100 µM | > 100 µM |  | > 100 µM | > 100 µM | > 100 µM | > 100 µM | > 100 µM | > 100 µM | > 100 µM |  |  |  |  |  |  | 
11 | COc1ccc(-c2nn(-c3cccc(NC(=O)Nc4ccccc4)c3)cc2-c2ccncc2)cc1Cl |  | 6.47 µM |  | 6.33 µM | 4.99 µM |  | 8.02 µM | 4.83 µM | 7.53 µM | 6.36 µM | 1.97 µM | 2.5 µM | 2.11 µM | 2.52 µM | 2.73 µM | 1.89 µM | 3.14 µM
12 | c1ccc(-c2nnc(SCc3c[nH]c4ccccc34)n2-c2ccccc2)cc1 | > 100 µM | 52.5 µM | > 100 µM | > 100 µM | > 100 µM | > 100 µM | > 100 µM | > 100 µM | > 100 µM | > 100 µM |  |  |  |  |  |  | 
13 | CC(C)(C)OC(=O)NCCC(=O)NC1(c2cc3ccccc3s2)CCCCC1 | 27 µM | 26.2 µM | 61.4 µM | 39 µM | 38.6 µM | 50.6 µM | 36.5 µM | 37.5 µM | 44.9 µM | 35.1 µM |  |  |  |  |  |  | 
